Measurements: ChEMBL document CHEMBL1140744, “Binding of serotonin and N1-benzenesulfonyltryptamine-related analogs at human 5-HT6 serotonin receptors: receptor modeling studies” (J Med Chem, 2008)

Biological target: 5-hydroxytryptamine receptor 6 (Homo sapiens, UniProt P50406)
Assay: Displacement of [3H]LSD from human 5HT6 receptor expressed in HEK293 cells
Type: cell-based

Sequence of 5-hydroxytryptamine receptor 6 (P50406 whole entry): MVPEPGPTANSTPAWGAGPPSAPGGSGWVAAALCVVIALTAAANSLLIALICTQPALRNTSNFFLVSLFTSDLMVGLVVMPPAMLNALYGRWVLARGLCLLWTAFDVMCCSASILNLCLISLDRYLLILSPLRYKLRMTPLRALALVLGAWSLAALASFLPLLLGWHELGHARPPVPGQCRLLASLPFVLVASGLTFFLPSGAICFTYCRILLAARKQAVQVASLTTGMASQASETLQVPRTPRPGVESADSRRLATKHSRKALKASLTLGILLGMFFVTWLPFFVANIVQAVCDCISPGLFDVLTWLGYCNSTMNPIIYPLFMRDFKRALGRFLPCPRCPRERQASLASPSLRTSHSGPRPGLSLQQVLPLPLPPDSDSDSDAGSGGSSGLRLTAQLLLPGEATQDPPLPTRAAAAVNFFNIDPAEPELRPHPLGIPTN

First: CN(C)[C@H]1CCc2c(cccc2NS(=O)(=O)c2ccccc2)C1
Second: CN(C)[C@@H]1CCc2c(cccc2NS(=O)(=O)c2ccccc2)C1
The Ki of the first is 1.8-fold higher: 90 nM for the first, 49 nM for the second. The second binds more tightly here.

First: CN(C)CCc1cn(Sc2ccccc2)c2ccccc12
Second: CCc1[nH]c2ccc(OC)cc2c1C[C@@H]1CCCN1C
The Ki of the first is 2.4-fold lower: 90 nM for the first, 220 nM for the second.

CCc1[nH]c2ccc(OC)cc2c1C[C@H]1CCCN1C was tested, and the Ki was 1.8 nM.
